From patent publication US6340694B1, “Diarylbenzopyran derivatives as cyclooxygenase-2 inhibitors” (Pacific Corporation, priority 1998, dated 2002)

Columns and labels:
[1] = target: T1, COX-1 (Mus musculus, UniProt P22437); assay: Evaluation of COX-1's inhibition efficacy (macrophages without aspirin and LPS pre-treatment); assay type: cell-based, C57BL/6 mouse; details: 10 μg/ml
T1 construct: there is no pre-treatment of aspirin and LPS in the adhesion of macrophage; endogenous in cells; host or cells: peritoneal macrophages of C57BL/6 mouse, without aspirin and LPS pre-treatment
T1 sequence (P22437 27-602): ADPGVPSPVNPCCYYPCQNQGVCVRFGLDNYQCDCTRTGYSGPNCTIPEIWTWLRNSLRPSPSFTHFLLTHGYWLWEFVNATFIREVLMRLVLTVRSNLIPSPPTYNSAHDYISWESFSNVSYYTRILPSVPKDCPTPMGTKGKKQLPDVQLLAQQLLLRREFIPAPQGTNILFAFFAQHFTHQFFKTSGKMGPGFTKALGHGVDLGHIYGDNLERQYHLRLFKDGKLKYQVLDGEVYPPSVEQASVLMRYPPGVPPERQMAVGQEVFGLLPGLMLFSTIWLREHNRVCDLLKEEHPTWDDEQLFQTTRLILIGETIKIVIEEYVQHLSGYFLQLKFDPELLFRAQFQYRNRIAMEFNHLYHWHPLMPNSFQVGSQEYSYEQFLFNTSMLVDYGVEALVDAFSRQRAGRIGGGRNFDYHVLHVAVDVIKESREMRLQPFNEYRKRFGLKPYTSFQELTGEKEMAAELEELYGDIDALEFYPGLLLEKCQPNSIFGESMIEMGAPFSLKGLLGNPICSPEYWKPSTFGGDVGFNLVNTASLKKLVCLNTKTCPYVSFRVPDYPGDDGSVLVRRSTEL
Description: Regarding the compounds in the above Examples and indomethacin, the inhibition efficacy of COX-2 and COX-1 are being measured by the following two methods.
After cleaning C57BL/6 mouse's abdomen by 70% EtOH, the skin of mouse's abdomen was eliminated cautiously not to harm peritomeum and 5 ml of cold PBS was poured into the abdominal cavity and in certain times later macrophage-bleeding abdominal-liquid was collected by syringe. By adding RPMI-1640 badge containing penicillin(100 unit/mt) and streptomycin([…]) to cell pellet obtained by centrifugation of collected liquid about 5 minutes in 1500 rpm, it was disperesed and also COX-1 existing in the cell was inactivated by treating with 500 μM aspirin. After putting 1 ml cell suspension having cell number of 1×10^6 cells/mu into each 24-well microtiter plates, macrophages were adhered to the bottom of plate by culturing in the condition of 5% CO2/95% O2, at a temperature of 37° C. for 2 hours. Other cells not being adhered to were eliminated by washing two times with PBS. The purity of macrophages obtained through this process was identified by differential counting. After adding RPMI-1640 badge(normally 5×10^5 cell/ml) containing 3% right fetal blood serum to macrophage and treating it with LPS(lipopolysaccharide) to make final concentration as 10 μg/ml, it was cultured in the condition of 5% CO2, at a temperature of 37° C. for 16 hours. After inducing COX-2 by LPS, the cell culture medium was eliminated and macrophages was washed two times with PBS. And 1 ml of RRPI-1640 badge was added to each well again and after treating them with sample with appropriate concentration, they were cultured at a temperature of 37i É for 10 minutes. And then treated them with arachidonic acid to make their final concentration as 10 μM and cultured them additional 10 minutes, all the supernatant liquid of reaction was obtained. The amount of PGE2 produced in the supernatant liquid of reaction was determined by the PGE2 radioimmuno assay. The 100% COX-2's activation is referenced by the difference of the amount of PGE2 produced in the supernatant liquid of reaction between with 10 μM arachidonic acid treatment and without 10 μM arachidonic acid treatment.
2. Evaluation of COX-1's Inhibition Efficacy
Following the same procedure as the above evaluation of COX-2's inhibition efficacy, but there is no pre-treatment of aspirin and LPS in the adhesion of macrophage.

[2] = target: T2, COX-2 (Mus musculus, UniProt Q05769); assay: Evaluation of COX-2's inhibition efficacy (PGE2 radioimmuno assay, LPS-induced, aspirin-pretreated peritoneal macrophages); assay type: cell-based, C57BL/6 mouse; details: for inhibition at 0.1 µg/mL: 0.1 μg/ml; for inhibition at 1 µg/mL: 1 μg/ml; for inhibition at 10 µg/mL: 10 μg/ml
T2 construct: endogenous in cells; host or cells: peritoneal macrophages of C57BL/6 mouse, aspirin-pretreated, LPS-induced
T2 sequence (Q05769 18-604): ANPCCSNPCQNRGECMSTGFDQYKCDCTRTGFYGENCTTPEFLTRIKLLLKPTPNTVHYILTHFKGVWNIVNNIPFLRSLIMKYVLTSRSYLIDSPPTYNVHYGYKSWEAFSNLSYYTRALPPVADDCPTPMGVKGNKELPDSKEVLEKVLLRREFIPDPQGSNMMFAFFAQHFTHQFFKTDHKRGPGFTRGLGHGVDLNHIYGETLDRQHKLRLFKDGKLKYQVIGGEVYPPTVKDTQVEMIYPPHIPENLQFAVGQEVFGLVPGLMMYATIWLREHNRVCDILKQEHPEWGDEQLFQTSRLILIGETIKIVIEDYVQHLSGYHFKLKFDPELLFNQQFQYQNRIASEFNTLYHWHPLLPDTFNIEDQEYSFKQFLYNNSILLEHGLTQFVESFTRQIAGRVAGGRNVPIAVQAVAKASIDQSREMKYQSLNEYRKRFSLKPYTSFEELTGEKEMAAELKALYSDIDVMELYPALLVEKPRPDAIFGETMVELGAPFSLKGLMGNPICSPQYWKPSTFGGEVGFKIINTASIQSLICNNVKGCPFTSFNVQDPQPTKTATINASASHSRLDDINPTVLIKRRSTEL
Description: Regarding the compounds in the above Examples and indomethacin, the inhibition efficacy of COX-2 and COX-1 are being measured by the following two methods. […] Evaluation of COX-2's Inhibition Efficacy (J. Pharmacol. Exp. […] After cleaning C57BL/6 mouse's abdomen by 70% EtOH, the skin of mouse's abdomen was eliminated cautiously not to harm peritomeum and 5 ml of cold PBS was poured into the abdominal cavity and in certain times later macrophage-bleeding abdominal-liquid was collected by syringe. […] After putting 1 ml cell suspension having cell number of 1×10^6 cells/mu into each 24-well microtiter plates, macrophages were adhered to the bottom of plate by culturing in the condition of 5% CO2/95% O2, at a temperature of 37° C. for 2 hours. Other cells not being adhered to were eliminated by washing two times with PBS. The purity of macrophages obtained through this process was identified by differential counting. […] After inducing COX-2 by LPS, the cell culture medium was eliminated and macrophages was washed two times with PBS. And 1 ml of RRPI-1640 badge was added to each well again and after treating them with sample with appropriate concentration, they were cultured at a temperature of 37i É for 10 minutes. And then treated them with arachidonic acid to make their final concentration as 10 μM and cultured them additional 10 minutes, all the supernatant liquid of reaction was obtained. The amount of PGE2 produced in the supernatant liquid of reaction was determined by the PGE2 radioimmuno assay.

| melting point [°C] | inhibition at 10 µg/mL [1] [%] | inhibition at 0.1 µg/mL [2] [%] | inhibition at 1 µg/mL [2] [%] | inhibition at 10 µg/mL [2] [%] | Structure (SMILES) |
| --- | --- | --- | --- | --- | --- |
| 208 to 209 | < 5 | 34 | 68 | 81 | CS(=O)(=O)c1ccc(-c2oc3ccccc3c(=O)c2-c2ccccc2)cc1 [Example 2, 2-(4-(Methylsulfonyl)phenyl)-3-phenyl-4H-1-benzopyran-4-one] |
| 223 to 224 | < 5 | – | – | < 5 | CS(=O)(=O)c1ccc(-c2oc3ccccc3c(=O)c2-c2cccc([N+](=O)[O-])c2)cc1 [Example 4, 2-(4-(methylsulfonyl)phenyl)-3-(3-nitrophenyl)-4H-1-benzopyran-4-one] |
| 172 to 175 | – | 39 | 90 | 100 | CS(=O)(=O)c1ccc(-c2oc3ccccc3c(=O)c2-c2ccc(Cl)cc2Cl)cc1 [Example 5, 3-(2,4-Dichlorophenyl)-2-(4-(methylsulfonyl)phenyl)-4H-1-benzopyran-4-one] |
| 165 to 167 | – | – | – | – | CS(=O)(=O)c1ccc(-c2oc3ccccc3c(=O)c2-c2cccs2)cc1 [Example 7, 2-(4-(Methylsulfonyl)phenyl)-3-(2-thienyl)-4H-1-benzopyran-4-one] |
| 223 to 224 | – | – | – | – | CC(=O)c1ccc(-c2c(-c3ccc(S(C)(=O)=O)cc3)oc3ccccc3c2=O)cc1 [Example 8, 3-(4-Acetylphenyl)-2-(4-(methylsulfonyl)phenyl)-4H-1-benzopyran-4-one] |
| 189 to 190 | < 5 | – | < 5 | 29 | CS(=O)(=O)c1ccc(-c2oc3ccccc3c(=O)c2-c2ccc(C=O)cc2)cc1 [Example 9, 3-(4-Formylphenyl)-2-(4-(methylsulfonyl)phenyl)-4H-1-benzopyran-4-one] |
| 193 to 194 | – | – | – | – | CS(=O)(=O)c1ccc(-c2oc3ccccc3c(=O)c2-c2cccc3ccccc23)cc1 [Example 13, 2-(4-(methylsulfonyl)phenyl)-3-(1-naphthyl)-4H-1-benzopyran-4-one] |
| 204 to 205 | < 5 | – | – | 24 | CS(=O)(=O)c1ccc(-c2oc3ccccc3c(=O)c2-c2ccncc2)cc1 [Example 16, 2-(4-(Methylsulfonyl)phenyl)-3-(4-pyridinyl)-4H-1-benzopyran-4-one] |
| 202 to 203 | < 5 | – | – | 13 | Cn1ccc(-c2c(-c3ccc(S(C)(=O)=O)cc3)oc3ccccc3c2=O)n1 [Example 17, 3-(N-methyl-3-pyrazolyl)-2-(4-(methylsulfonyl)phenyl)-4H-1-benzopyran-4-one] |
| 191 to 192 | – | 18 | 77 | 96 | CS(=O)(=O)c1ccc(-c2oc3ccccc3c(=S)c2-c2cccc(Cl)c2Cl)cc1 [Example 38, 3-(2,3-Dichlorophenyl)-2-(4-(methylsulfonyl)phenyl)-4H-1-benzopyran-4-thione] |
| 201 to 202 | – | 11 | 31 | 86 | Cc1cccc(-c2c(-c3ccc(S(C)(=O)=O)cc3)oc3ccccc3c2=S)c1 [Example 39, 3-(3-Methylphenyl)-2-(4-(methylsulfonyl)phenyl)-4H-1-benzopyran-4-thione] |
| 168 | – | – | – | – | CS(=O)(=O)c1ccc(-c2oc3ccccc3c(=S)c2-c2ccc(Cl)c(Cl)c2)cc1 [Example 42, 3-(3,4-Dichlorophenyl)-2-(4-(methylsulfonyl)phenyl)-4H-1-benzopyran-4-thione] |
| 204 to 205 | – | – | – | – | Cc1ccc(-c2c(-c3ccc(S(C)(=O)=O)cc3)oc3ccccc3c2=S)cc1 [Example 43, 3-(4-Methylphenyl)-2-(4-(methylsulfonyl)phenyl)-4H-1-benzopyran-4-thione] |
| 199 | – | – | – | – | COc1ccc(-c2c(-c3ccc(S(C)(=O)=O)cc3)oc3ccccc3c2=S)cc1 [Example 44, 3-(4-Methoxyphenyl)-2-(4-(methylsulfonyl)phenyl)-4H-1-benzopyran-4-thione] |
| 198 to 200 | – | – | – | – | CS(=O)(=O)c1ccc(-c2oc3ccccc3c(=S)c2-c2ccccc2F)cc1 [Example 45, 3-(2-Fluorophenyl)-2-(4-(methylsulfonyl)phenyl)-4H-1-benzopyran-4-thione] |
| 212 | – | 4 | 67 | 91 | CS(=O)(=O)c1ccc(-c2oc3ccccc3c(=S)c2-c2cccc(F)c2)cc1 [Example 46, 3-(3-Fluorophenyl)-2-(4-(methylsulfonyl)phenyl)-4H-1-benzopyran-4-thione] |
| 215 to 217 | – | 32 | 76 | 92 | Cc1ccc(-c2c(-c3ccc(S(N)(=O)=O)cc3)oc3ccc(F)cc3c2=O)cc1 [Example 49, 2-(4-(Aminosulfonyl)phenyl)-6-fluoro-3-(4-methylphenyl)-4H-1-benzopyran-4-one] |
| 215 to 217 | – | 5 | 80 | 87 | NS(=O)(=O)c1ccc(-c2oc3ccc(F)cc3c(=O)c2-c2ccc(Cl)cc2)cc1 [Example 50, 2-(4-(Aminosulfonyl)phenyl)-6-fluoro-3-(4-chlorophenyl)-4H-1-benzopyran-4-one] |
